{"source": "ChEMBL document CHEMBL5465560", "about": "“Selectivity Literature for EUbOPEN Chemogenomic Library” (2024)", "key": {"[1]": {"test_system": "Epidermal growth factor receptor (Homo sapiens), P00533 [UNDEFINED MUTATION]", "sequence (P00533 whole entry, looked up, change not shown)": "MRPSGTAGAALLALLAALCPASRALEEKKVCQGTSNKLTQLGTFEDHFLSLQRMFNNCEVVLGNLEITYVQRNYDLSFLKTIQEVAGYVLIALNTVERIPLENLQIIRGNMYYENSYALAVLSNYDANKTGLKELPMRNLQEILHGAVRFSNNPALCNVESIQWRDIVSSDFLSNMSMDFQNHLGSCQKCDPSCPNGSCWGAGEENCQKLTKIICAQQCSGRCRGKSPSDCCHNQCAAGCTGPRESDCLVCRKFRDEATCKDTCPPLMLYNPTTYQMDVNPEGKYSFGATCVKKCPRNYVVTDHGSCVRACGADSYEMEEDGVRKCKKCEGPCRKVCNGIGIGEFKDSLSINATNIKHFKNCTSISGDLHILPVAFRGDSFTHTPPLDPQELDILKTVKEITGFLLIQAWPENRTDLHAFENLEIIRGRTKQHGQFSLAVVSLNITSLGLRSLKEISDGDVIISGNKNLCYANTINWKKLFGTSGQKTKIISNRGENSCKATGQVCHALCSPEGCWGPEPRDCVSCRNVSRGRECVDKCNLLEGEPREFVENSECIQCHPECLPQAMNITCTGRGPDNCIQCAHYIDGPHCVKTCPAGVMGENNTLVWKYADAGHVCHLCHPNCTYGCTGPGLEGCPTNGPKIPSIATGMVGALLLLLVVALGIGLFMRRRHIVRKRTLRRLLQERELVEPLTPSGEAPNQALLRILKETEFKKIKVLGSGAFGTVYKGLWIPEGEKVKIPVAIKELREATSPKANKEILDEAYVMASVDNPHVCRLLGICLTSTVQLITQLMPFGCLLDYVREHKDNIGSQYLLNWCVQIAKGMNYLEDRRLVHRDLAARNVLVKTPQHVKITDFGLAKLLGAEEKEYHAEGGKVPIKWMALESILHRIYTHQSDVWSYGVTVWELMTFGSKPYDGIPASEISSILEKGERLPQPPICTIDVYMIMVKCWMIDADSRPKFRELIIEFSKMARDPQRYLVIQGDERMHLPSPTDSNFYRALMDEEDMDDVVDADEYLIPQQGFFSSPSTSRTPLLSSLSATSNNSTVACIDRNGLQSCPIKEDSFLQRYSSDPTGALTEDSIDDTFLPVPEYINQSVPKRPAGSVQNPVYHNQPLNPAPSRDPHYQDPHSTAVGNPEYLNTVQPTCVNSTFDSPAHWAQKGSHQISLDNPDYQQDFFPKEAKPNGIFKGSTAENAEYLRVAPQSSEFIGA", "assay": "Selectivity interaction (KinomeScan (DiscoverX)) EUB0000092b EGFR", "details": "at 10 µM"}, "[2]": {"molecular_target": "T1, Non-receptor tyrosine-protein kinase TNK1 (Homo sapiens) (UniProt Q13470)", "T1 sequence (whole entry)": "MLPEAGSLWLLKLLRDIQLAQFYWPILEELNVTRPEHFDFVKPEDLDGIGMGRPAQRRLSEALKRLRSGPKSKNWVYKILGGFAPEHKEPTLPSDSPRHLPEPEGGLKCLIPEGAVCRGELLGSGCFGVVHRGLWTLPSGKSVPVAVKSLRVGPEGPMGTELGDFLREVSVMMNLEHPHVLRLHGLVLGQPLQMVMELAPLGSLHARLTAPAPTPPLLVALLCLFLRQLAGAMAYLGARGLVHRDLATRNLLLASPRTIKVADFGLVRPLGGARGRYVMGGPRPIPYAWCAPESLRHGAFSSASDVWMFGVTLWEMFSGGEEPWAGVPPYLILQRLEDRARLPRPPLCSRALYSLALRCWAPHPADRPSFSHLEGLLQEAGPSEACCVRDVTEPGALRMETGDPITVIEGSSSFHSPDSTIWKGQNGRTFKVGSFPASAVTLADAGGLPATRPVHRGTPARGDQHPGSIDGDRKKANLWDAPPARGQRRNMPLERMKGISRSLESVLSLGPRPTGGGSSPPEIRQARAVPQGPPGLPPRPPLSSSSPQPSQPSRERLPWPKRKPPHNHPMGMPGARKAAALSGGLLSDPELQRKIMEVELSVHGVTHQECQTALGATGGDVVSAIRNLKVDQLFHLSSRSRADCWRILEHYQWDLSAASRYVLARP", "assay": "Selectivity interaction (KinomeScan (DiscoverX)) EUB0000666a TNK1", "details": "at 10 µM"}, "[3]": {"molecular_target": "T2, Dual specificity mitogen-activated protein kinase kinase 3 (Homo sapiens) (UniProt P46734)", "T2 sequence (whole entry)": "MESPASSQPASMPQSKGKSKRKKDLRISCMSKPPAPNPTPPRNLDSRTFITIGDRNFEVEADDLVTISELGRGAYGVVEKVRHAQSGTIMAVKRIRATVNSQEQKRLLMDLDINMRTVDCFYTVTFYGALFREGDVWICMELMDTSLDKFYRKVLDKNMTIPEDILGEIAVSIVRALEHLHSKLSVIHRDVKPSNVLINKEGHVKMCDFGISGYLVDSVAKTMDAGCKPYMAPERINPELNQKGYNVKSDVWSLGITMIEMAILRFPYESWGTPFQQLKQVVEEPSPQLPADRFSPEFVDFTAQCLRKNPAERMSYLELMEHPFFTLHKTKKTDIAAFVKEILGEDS", "assay": "Selectivity interaction (Kinase panel (Invitrogen)) EUB0000639a MAP2K3", "details": "at 200 nM"}, "[4]": {"molecular_target": "Mu-type opioid receptor (Homo sapiens, UniProt P35372)", "sequence (P35372 whole entry)": "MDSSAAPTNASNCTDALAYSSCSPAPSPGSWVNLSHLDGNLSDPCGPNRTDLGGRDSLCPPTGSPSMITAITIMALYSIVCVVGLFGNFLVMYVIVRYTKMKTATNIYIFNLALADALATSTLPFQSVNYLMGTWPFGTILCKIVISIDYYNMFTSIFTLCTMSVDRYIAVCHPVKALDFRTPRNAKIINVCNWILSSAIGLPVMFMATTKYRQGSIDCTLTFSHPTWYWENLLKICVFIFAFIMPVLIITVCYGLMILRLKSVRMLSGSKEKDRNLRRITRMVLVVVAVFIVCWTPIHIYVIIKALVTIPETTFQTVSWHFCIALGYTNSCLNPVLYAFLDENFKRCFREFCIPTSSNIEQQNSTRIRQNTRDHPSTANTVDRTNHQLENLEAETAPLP", "assay": "Selectivity interaction (Panel of kinases, GPCRs, ion channels and transporters (enzymatic assay)) EUB0000223bCl OPRM1"}, "[5]": {"molecular_target": "Tyrosine-protein kinase Srms (Homo sapiens) (UniProt Q9H3Y6)", "sequence (Q9H3Y6 whole entry)": "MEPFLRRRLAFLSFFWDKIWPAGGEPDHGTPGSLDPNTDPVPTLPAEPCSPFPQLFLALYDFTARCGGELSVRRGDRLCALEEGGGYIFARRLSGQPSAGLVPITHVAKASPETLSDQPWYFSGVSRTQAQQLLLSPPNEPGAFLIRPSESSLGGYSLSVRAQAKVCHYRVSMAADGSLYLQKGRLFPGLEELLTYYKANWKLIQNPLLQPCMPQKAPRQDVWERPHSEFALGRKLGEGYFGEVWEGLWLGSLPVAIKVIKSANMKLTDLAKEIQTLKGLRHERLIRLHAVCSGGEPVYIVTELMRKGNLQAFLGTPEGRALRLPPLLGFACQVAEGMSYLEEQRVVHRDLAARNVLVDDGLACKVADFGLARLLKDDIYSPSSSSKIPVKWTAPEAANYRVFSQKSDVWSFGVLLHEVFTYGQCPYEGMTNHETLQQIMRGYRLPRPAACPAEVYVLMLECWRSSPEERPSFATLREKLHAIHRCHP", "assay": "Selectivity interaction (KinomeScan (DiscoverX)) EUB0001049a SRMS", "details": "at 1 µM"}, "[6]": {"molecular_target": "T3, Bone morphogenetic protein receptor type-2 (Homo sapiens) (UniProt Q13873)", "T3 sequence (whole entry)": "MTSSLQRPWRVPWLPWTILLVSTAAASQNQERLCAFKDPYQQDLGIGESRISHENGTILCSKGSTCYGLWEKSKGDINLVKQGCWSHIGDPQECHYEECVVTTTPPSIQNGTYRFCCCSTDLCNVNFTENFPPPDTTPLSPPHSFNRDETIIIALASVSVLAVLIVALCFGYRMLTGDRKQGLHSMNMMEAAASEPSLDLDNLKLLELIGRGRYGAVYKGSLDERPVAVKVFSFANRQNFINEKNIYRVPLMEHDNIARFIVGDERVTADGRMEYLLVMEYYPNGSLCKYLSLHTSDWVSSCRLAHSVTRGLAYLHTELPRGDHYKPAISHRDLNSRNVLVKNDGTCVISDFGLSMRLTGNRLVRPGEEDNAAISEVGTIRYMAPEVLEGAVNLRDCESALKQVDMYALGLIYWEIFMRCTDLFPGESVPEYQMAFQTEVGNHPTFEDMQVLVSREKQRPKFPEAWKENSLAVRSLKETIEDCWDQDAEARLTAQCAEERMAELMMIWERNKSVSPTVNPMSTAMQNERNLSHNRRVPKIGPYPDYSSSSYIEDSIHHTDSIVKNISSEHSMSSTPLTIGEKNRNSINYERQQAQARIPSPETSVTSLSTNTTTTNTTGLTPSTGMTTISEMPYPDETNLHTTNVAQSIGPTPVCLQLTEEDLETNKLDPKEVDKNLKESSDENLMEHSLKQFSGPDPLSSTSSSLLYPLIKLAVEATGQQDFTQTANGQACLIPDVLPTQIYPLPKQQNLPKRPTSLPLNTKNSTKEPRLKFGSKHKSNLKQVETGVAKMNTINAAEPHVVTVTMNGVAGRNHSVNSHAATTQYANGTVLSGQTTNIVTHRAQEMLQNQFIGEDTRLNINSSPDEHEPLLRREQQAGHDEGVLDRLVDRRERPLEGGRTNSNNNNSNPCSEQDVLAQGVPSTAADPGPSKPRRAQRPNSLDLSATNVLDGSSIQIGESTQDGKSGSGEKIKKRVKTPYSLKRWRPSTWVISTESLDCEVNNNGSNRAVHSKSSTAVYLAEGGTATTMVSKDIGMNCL", "assay": "Selectivity interaction (KinomeScan (DiscoverX)) EUB0001619a BMPR2", "details": "at 1 µM"}}, "data": [{"smiles": "CCC(=O)N1CCN(c2ccc(-n3c(=O)ccc4cnc5ccc(-c6cnc7ccccc7c6)cc5c43)cc2C(F)(F)F)CC1", "values": [{"measurement": "% of control", "setting": "[1]", "value": 84, "unit": "%"}]}, {"smiles": "O=C(NOC[C@H](O)CO)c1ccc(F)c(F)c1Nc1ccc(I)cc1F", "values": [{"measurement": "% of control", "setting": "[2]", "value": 68, "unit": "%"}]}, {"smiles": "CC[C@@H]1[C@H](F)C(=O)N[C@@H]1COc1nccc2cc(C(N)=O)c(OC)cc12", "note": "[ZIMLOVISERTIB]", "values": [{"measurement": "% of inhibition", "setting": "[3]", "value": 0.853, "unit": "%"}]}, {"smiles": "COc1cc(C(=O)N2CC[C@@H](O)[C@@H](N)C2)cc2nc(-c3cc4ccccc4n3CC3CC3)n(C)c12", "values": [{"measurement": "pXC50", "setting": "[4]", "value": "< 4", "unit": "M"}]}, {"smiles": "COc1cc(Nc2nc(C)cc(-c3cnn4nc(OC)ccc34)n2)cc(C(F)(F)F)c1", "values": [{"measurement": "% of control", "setting": "[5]", "value": 66, "unit": "%"}]}, {"smiles": "N#Cc1cccc(-c2c[nH]c3ncnc(N4CCOCC4)c23)c1", "values": [{"measurement": "% of control", "setting": "[6]", "value": 80, "unit": "%"}]}]}
